The source of these data is US6632456B1, “Compositions for inhalation” (AstraZeneca AB, priority 1994, dated 2003).

Counter-ions that a name gives are not always drawn.

A short description of data set [1]: Enhancement of insulin uptake after powder inhalation in a rat model (blood glucose). In kind it is in vivo, rats. Particulars: for enhancement of polypeptide (insulin) absorption in the lung: rat model of Example 2, substance tested as enhancer; for Effect (decrease in blood glucose level): rats, inhaled powder.
Protocol: Each of the compounds listed in Table I was tested for its ability to enhance uptake of a polypeptide (insulin) in a rat model.
Various forms of insulin were employed in the different trials: recombinant human, semisynthetic human or bovine. Each formulation was prepared as above, drying and processing the insulin/enhancer or insulin/enhancer/lactose solution to produce an inhalable powder. The powder was administered to rats by inhalation, and the blood glucose levels of the rats were subsequently monitored as a measure of insulin uptake. These levels were compared to the corresponding values obtained from rats which had inhaled insulin formulations without enhancer.
The test system of data set [2] is CaCo-2 epithelial cell monolayer. Description: CaCo-2 epithelial cell monolayer transport assay. Type of data set: in vitro ADME. Particulars: for transport rate across the monolayer: CaCo-2, up to 16 mM sodium caprate. The protocol: A standard in vitro assay utilizing an epithelial cell line, CaCo-2 (available through the American Type Culture Collection (ATCC), Rockville, Md., USA), has been developed to assess the ability of various enhancer compounds to promote transport of markers across an epithelial cell monolayer, as a model for the epithelial cell layer which functions in the lung to separate the alveolus from the pulmonary blood supply.
In this assay, the enhancer and polypeptide or other marker are dissolved in aqueous solution at various proportions and/or concentrations, and applied to the apical side of the cell monolayer. After 60 min incubation at 37° C. and 95% RH (relative humidity), the amount of the marker on the basolateral side of the cells is determined, e.g., by use of a radioactively labelled marker.

On the set-up of data set [3]: species or system rats. The settings on record: rat, in vivo. The method, then:
The mixture was milled in a Retsch mechanical mill to a particle size of mass median diameter 6.7 μm. The resultant powder was administered intratraceally in rats and the uptake of hGH compared with that of a powder, MMD 9.6 μm, comprising hGH and mannitol in the same proportions and prepared in the same way as above.

Setting [4] is: Enhancer:Insulin:lactose 4:4:92, vs insulin without enhancer.
The mark [5] stands for this setting: Enhancer:Insulin:lactose 25:75:0, vs insulin without enhancer.
The mark [6] stands for this setting: Enhancer:Insulin:lactose 2:4:94, vs insulin without enhancer.

Take `O=C(O)CN(CCN(CC(=O)O)CC(=O)O)CC(=O)O` [sodium salt of ethylenediaminetetraacetic acid]: in data set [1], the “enhancement of polypeptide (insulin) absorption in the lung” value (“enhancement of polypeptide” below) is listed as “ineffective”.
Consider `C[C@H](CCC(=O)NCCS(=O)(=O)O)[C@H]1CC[C@H]2[C@@H]3[C@H](O)C[C@@H]4C[C@H](O)CC[C@]4(C)[C@H]3C[C@H](O)[C@]12C` [Sodium taurocholate], for which the “enhancement of polypeptide” value in data set [1] is “effectively enhance polypeptide absorption in the lung”. In data set [1] (setting [4]), the “Effect (decrease in blood glucose level)” value is “+”.
Turning to `CCCCCCCC(=O)[O-].[Na+]` [Sodium caprylate], the “Effect (decrease in blood glucose level)” value in data set [1] (setting [5]) is listed as “−”.
For `CCCCCCCCCC(=O)[O-].[K+]` [Potassium caprate], in data set [1], the “enhancement of polypeptide” value was “effective”. For the same compound, the “Effect (decrease in blood glucose level)” value in data set [1] (Enhancer:Insulin:lactose 27:73:0, vs insulin without enhancer) is listed as “+”.
For cytochrome C, the “transport rate across the monolayer” value in data set [2] is on record as “no increase in transport rate”.
Same read-out and setting: for carbonic anhydrase the value was “no increase in transport rate”.
`CCCCCCCC(=O)OCC(COP(=O)([O-])OCC[N+](C)(C)C)OC(=O)CCCCCCC` (centres unmarked) [Dioctanoylphosphatidylcholine]: the “Effect (decrease in blood glucose level)” value in data set [1] (setting [6]) is given as “(+)”.
Turning to `CCCCCCCCCCCCCC(=O)[O-].[Na+]` [Sodium myristate], in data set [1], the “enhancement of polypeptide” value is on record as “perform well”. Moreover, in data set [1] (Enhancer:Insulin:lactose 30:70:0, vs insulin without enhancer), the “Effect (decrease in blood glucose level)” value was “+”.
Turning to Lysophosphatidylcholine, the “enhancement of polypeptide” value in data set [1] is given as “effective enhancer”. Moreover, the “Effect (decrease in blood glucose level)” value in data set [1] (setting [4]) was “+”.
With `CC(=O)OC1CC2(C)C(CC(O)C3C4(C)CCC(O)C(C)C4CCC32C)C1=C(CCCC(C)C)C(=O)NCCS(=O)(=O)O` (centres unmarked) [Sodium taurodihydrofusidate], the “enhancement of polypeptide” value in data set [1] was “effectively enhance polypeptide absorption in the lung”. The “Effect (decrease in blood glucose level)” value in data set [1] (setting [6]) was “+”.
On to “hGH: Human hormone (hGH, MW 22 kD, source Humatrope from Lilly), 3 parts mixed with sodium caprate (1 part), milled powder”, for which, in data set [3], the “uptake of hGH” value is “improvement in the uptake”.
In the case of `CCCCCCCCCC(=O)OC[C@H](COP(=O)([O-])OCC[N+](C)(C)C)OC(=O)CCCCCCCCC` [Didecanoylphospatidylcholine], the “Effect (decrease in blood glucose level)” value in data set [1] (Enhancer:Insulin:lactose 4:4:94, vs insulin without enhancer) was “−”.
As to `CCCCCCCCCC(=O)[O-].[Na+]` [Sodium caprate], in data set [1], the “enhancement of polypeptide” value is “perform well”. Also, the “Effect (decrease in blood glucose level)” value in data set [1] (setting [4]) is “+”; in data set [1] (Enhancer:Insulin:lactose 10:90:0, vs insulin without enhancer), “(+)”; in data set [1] (Enhancer:Insulin:lactose 17.5:82.5:0, vs insulin without enhancer), “(+)”; in data set [1] (setting [5]), “+”. The “amount of marker (mannitol) which appears on the basolateral side, insulin added” value in data set [2] (CaCo-2 monolayer, 1:3 sodium caprate:insulin by weight (FIG. 2)) was “This is true”. The “amount of marker (mannitol) which appears on the basolateral side” value in data set [2] (CaCo-2 monolayer, 60 min, 37° C., up to 16 mM sodium caprate (FIG. 1)) is on record as “dependent upon the concentration of enhancer used”.
As to Lysine caprate, the “enhancement of polypeptide” value in data set [1] was “effective”. Besides, the “Effect (decrease in blood glucose level)” value in data set [1] (Enhancer:Insulin:lactose 35:65:0, vs insulin without enhancer) was “+”.
On to albumin, for which, in data set [2], the “transport rate across the monolayer” value is “no increase in transport rate”.
On to Dimethyl-β-cyclodextrin, for which the “enhancement of polypeptide” value in data set [1] is recorded as “absorption enhancing effect”. Moreover, the “Effect (decrease in blood glucose level)” value in data set [1] (Enhancer:Insulin:lactose 75:25:0, vs insulin without enhancer) is recorded as “+”.
As for `CCCCCCCC/C=C\CCCCCCCC(=O)[O-].[K+]` [Potassium oleate], in data set [1] (setting [4]), the “Effect (decrease in blood glucose level)” value is “+”.
Consider `C[C@H](CCC(=O)NCC(=O)[O-])[C@H]1CC[C@H]2[C@@H]3[C@H](O)C[C@@H]4C[C@H](O)CC[C@]4(C)[C@H]3C[C@H](O)[C@]12C.[Na+]` [Sodium glycocholate], for which the “enhancement of polypeptide” value in data set [1] is given as “effectively enhance polypeptide absorption in the lung”. Moreover, the “Effect (decrease in blood glucose level)” value in data set [1] (setting [4]) is listed as “+”.
The matching figures for `CCCCCCCCOC1O[C@H](CO)[C@@H](O)[C@H](O)[C@H]1O` (some centres unmarked) [Octylglucopyranoside]: “some absorption enhancing properties” and “(+)”.
For `CCCCCCCCCCCC(=O)[O-].[Na+]` [Sodium laurate], the “enhancement of polypeptide” value in data set [1] was “perform well”. Besides, the “Effect (decrease in blood glucose level)” value in data set [1] (setting [5]) is on record as “(+)”.
Take `C[C@H](CCC(=O)[O-])[C@H]1CC[C@H]2[C@@H]3[C@@H](O)C[C@@H]4C[C@H](O)CC[C@]4(C)[C@H]3CC[C@]12C.[Na+]` [Sodium ursodeoxycholate]: in data set [1], the “enhancement of polypeptide” value is “effectively enhance polypeptide absorption in the lung”. Besides, the “Effect (decrease in blood glucose level)” value in data set [1] (setting [4]) is “+”.
